16 molecules from ChEMBL document CHEMBL1811886 (J Med Chem, 2011) can be followed below.

The term Ki denotes a measure of affinity in units of concentration, obtained from inhibition or displacement. A high value points to a looser hold on the target. By clearance is commonly meant the volume of plasma or blood freed of the substance per unit of time. Low values mean inefficient removal, high ones efficient removal. As a reminder, the IC50 is the concentration that inhibits the measured activity by half. Usually EC50 stands for the concentration needed to bring the measured effect to its halfway point. A word on the logD: it is the decadic logarithm of the distribution of all forms, ionised or not, between an organic phase and buffer at a given pH. Read a low logD as lower lipophilicity. The ED50 is the midpoint of the dose-response relation. For orientation: Kb means the affinity of an antagonist, worked out from how it opposes an agonist. For orientation: bioavailability means the share of a dose that reaches the circulation, judged against a reference dose that is usually intravenous. The low end stands for poor availability, the high end for good availability. For orientation: inhibition means the percentage by which the read-out fell short of the control. As a reminder, the pKa is the negative logarithm of the acid dissociation constant. Low readings indicate a stronger acid or weaker base, high ones a weaker acid or stronger base.

Series [1] deals with T1, Histamine H3 receptor (Rattus norvegicus, UniProt Q9QYN8). The experiment in a line: Displacement of [3H]NAMH from rat histamine H3 receptor expressed in CHO cells. The class given is cell-based. Background: In a radioligand displacement assay an active substance lowers the binding of a labelled ligand.
The nature of series [2]: Systemic clearance in fasted Sprague-Dawley rat at 1 mg/kg, iv after 6 to 24 hrs by LC-MS/MS analysis. It is filed as ADME, organism-based. Set-up: dose 1 mg/kg, route intravenous. Conditions: in vivo.
The nature of series [3]: Ratio of drug uptake in brain to plasma of fasted Sprague-Dawley rat at 1 mg/kg, iv after 6 to 24 hrs by LC-MS/MS analysis. The class given is ADME, organism-based. On the set-up: dose 1 mg/kg, route intravenous. As to conditions: read-out: BPR.
For series [4], the target named is Voltage-gated inwardly rectifying potassium channel KCNH2 (Homo sapiens, UniProt Q12809). The experiment in a line: Inhibition of recombinant human ERG channel expressed in human HEK 293 cells by patch clamp assay. It is filed as cell-based, HEK293.
For series [5], the target named is T2, Histamine H3 receptor (Homo sapiens, UniProt Q9Y5N1). The experiment in a line: Inverse agonist activity at human histamine H3 receptor assessed as inhibition of R-alpha-methylhistamine induced [35S]GTPgammaS binding. It is filed as functional. A general note: Binding of GTPγS marks nucleotide exchange on a G protein.
Series [6] is described as follows: Distribution coefficient log D of the compound at pH 7.4. The class given is physicochemical. As to conditions: octanol/water.
The nature of series [7]: Terminal half life in fasted Sprague-Dawley rat at 1 mg/kg, iv after 6 to 24 hrs by LC-MS/MS analysis. Conditions: in vivo, read-out: beta t1/2 (converted). Set-up: dose 1 mg/kg, route intravenous. It is filed as ADME, organism-based.
Series [8] has as its system Rattus norvegicus. The experiment in a line: Inhibition of RAMH-induced dipsogenia in Long Evans rat administered as po 15 mins prior to RAMH challenge. The class given is functional.
For series [9], the target named is T2, Histamine H3 receptor. The experiment in a line: Displacement of [3H]NAMH from human histamine H3 receptor expressed in CHO cells. It is filed as cell-based.
Series [10] addresses T2, Histamine H3 receptor. The experiment in a line: Antagonist activity against human histamine H3 receptor assessed as inhibition of R-alpha-methylhistamine induced [35S]GTPgammaS binding. The class given is functional.
In series [11] the target is T1, Histamine H3 receptor. Briefly: Inverse agonist activity at rat histamine H3 receptor assessed as inhibition of R-alpha-methylhistamine induced [35S]GTPgammaS binding. The class given is functional.
Series [12] in a line: Oral bioavailability in fasted Sprague-Dawley rat at 10 mg/kg after 24 hrs by LC-MS/MS analysis. As to conditions: in vivo. It is filed as ADME, organism-based.
Series [13] can be described thus: Oral bioavailability in fasted Sprague-Dawley rat at 5 mg/kg after 6 hrs by LC-MS/MS analysis. It is filed as ADME, organism-based. As to conditions: in vivo.
Series [14] in a line: Bioavailability in fasted Sprague-Dawley rat at 1 mg/kg, iv after 6 to 24 hrs by LC-MS/MS analysis. The class given is ADME, organism-based. Conditions: in vivo.
In series [15] the target is Histamine H4 receptor (Homo sapiens) (UniProt Q9H3N8). Briefly: Inhibition of human histamine H4 receptor at 10 uM.
The target in series [16] is Histamine H2 receptor (Homo sapiens) (UniProt P25021). Briefly: Inhibition of human histamine H2 receptor at 10 uM.
For series [17], the target named is Histamine H1 receptor (Homo sapiens) (UniProt P35367). Briefly: Inhibition of human histamine H1 receptor at 10 uM.
Series [18] is described as follows: Dissociation constant, pKa of the compound. It is filed as physicochemical.

T1 sequence (Q9QYN8 whole entry): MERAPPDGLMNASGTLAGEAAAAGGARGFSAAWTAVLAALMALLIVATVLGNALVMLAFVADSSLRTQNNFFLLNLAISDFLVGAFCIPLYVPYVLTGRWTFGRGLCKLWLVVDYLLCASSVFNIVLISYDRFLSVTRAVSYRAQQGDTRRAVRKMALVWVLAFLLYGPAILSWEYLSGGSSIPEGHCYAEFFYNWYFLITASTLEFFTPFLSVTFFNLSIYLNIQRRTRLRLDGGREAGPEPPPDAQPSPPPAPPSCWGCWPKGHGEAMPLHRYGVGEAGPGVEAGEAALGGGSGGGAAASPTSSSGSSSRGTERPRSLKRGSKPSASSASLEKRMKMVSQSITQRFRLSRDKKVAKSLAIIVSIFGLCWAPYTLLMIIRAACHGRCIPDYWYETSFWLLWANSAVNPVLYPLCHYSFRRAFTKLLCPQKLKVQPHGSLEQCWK
T2 sequence (Q9Y5N1 whole entry): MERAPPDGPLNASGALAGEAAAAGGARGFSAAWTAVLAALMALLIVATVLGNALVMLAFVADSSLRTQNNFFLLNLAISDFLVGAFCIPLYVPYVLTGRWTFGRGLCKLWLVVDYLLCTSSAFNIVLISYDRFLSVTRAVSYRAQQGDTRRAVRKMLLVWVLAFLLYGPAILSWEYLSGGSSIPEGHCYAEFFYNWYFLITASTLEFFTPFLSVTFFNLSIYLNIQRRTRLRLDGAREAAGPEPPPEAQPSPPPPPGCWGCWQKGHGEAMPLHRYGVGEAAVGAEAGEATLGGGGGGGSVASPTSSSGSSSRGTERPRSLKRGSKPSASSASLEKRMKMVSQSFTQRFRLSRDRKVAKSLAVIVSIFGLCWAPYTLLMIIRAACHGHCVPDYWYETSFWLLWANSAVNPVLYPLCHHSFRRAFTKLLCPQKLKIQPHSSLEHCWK
Sequence of Voltage-gated inwardly rectifying potassium channel KCNH2 (Q12809 whole entry): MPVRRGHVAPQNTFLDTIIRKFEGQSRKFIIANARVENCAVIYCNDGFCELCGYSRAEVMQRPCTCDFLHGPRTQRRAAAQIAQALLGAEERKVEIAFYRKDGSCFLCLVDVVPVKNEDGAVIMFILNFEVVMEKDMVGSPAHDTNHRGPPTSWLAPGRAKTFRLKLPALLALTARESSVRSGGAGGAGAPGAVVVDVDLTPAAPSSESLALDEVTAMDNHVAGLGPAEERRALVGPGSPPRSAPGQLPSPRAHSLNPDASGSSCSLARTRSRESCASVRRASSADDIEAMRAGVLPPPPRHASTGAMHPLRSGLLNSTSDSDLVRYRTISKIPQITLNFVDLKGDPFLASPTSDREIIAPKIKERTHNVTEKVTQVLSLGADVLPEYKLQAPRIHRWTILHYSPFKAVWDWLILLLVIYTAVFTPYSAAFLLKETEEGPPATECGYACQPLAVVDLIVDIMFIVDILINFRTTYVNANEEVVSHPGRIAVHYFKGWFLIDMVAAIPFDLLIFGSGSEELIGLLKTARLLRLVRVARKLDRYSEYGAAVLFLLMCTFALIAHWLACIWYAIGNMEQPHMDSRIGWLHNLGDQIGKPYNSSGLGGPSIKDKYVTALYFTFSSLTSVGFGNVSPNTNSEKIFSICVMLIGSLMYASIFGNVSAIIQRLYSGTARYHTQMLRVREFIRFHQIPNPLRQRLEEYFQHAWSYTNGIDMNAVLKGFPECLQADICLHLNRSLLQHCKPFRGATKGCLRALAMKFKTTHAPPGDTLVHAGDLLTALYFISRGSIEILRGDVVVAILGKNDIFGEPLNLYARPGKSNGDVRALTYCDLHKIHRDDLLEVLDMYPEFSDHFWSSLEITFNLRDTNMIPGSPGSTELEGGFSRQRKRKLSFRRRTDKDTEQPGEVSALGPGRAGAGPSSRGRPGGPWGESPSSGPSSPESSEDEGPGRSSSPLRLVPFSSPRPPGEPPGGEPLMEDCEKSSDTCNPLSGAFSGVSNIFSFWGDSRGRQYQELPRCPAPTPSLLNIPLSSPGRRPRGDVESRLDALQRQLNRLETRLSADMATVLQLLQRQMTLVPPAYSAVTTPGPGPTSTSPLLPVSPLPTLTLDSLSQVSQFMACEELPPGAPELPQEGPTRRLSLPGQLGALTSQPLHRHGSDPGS
Sequence of Histamine H1 receptor (Homo sapiens) (P35367 whole entry): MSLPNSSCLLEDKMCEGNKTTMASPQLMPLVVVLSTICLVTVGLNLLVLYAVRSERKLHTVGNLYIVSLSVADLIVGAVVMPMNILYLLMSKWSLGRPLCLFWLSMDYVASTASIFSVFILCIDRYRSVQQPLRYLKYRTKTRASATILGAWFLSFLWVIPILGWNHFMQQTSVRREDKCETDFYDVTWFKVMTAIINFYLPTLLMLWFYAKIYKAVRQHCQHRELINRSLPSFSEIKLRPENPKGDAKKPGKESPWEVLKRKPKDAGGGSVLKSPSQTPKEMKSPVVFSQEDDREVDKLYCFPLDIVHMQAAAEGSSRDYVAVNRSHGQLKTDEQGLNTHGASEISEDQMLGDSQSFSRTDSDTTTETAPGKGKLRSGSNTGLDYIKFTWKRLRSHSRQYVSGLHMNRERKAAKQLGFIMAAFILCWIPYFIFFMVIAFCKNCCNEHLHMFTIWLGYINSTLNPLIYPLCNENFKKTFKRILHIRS
Sequence of Histamine H2 receptor (Homo sapiens) (P25021 whole entry): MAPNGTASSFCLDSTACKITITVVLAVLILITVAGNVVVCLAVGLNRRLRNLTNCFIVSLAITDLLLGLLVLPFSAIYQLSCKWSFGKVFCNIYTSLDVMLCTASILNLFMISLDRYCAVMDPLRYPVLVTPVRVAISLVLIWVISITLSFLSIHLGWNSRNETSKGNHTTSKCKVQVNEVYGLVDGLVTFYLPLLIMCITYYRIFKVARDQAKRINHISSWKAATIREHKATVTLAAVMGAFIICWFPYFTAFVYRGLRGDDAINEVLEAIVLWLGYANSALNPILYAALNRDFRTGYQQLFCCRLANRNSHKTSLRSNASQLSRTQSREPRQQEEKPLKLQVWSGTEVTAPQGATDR
Sequence of Histamine H4 receptor (Homo sapiens) (Q9H3N8 whole entry): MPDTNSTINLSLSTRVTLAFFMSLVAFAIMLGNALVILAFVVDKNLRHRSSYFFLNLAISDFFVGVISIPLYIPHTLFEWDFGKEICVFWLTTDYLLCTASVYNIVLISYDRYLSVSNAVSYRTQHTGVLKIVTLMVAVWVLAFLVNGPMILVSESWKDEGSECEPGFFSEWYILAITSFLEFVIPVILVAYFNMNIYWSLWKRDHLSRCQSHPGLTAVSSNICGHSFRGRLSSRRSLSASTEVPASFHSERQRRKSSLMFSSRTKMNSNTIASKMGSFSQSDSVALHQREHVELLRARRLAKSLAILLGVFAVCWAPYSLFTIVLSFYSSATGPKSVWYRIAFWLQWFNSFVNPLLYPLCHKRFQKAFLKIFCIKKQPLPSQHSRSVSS

Consider `C[C@@H]1CCCN1CCCOc1ccc(-c2ccc(=O)n(C)n2)cc1`, for which the Ki worked out at 6.3 nM in [1] and 1.4 nM in series [9]. In series [2], this molecule gave a clearance of 45 mL/min/kg. In addition, the Kp in series [3] was 3.5. Besides, the IC50 in [4] is 13000 nM. Besides, the EC50 in series [5] is 1 nM; in series [11], 2.2 nM. The molecule also came in with a logD in series [6] of 0.8. Moreover, in [7], the half-life was 1.6 h. The same molecule came in with an ED50 in series [8] of 0.14 mg/kg. The Kb in series [10] was found to be 0.5 nM. Also, in series [12], the bioavailability is 39%.
Consider `CCn1nc(-c2ccc(OCCCN3CCC[C@H]3C)cc2)ccc1=O`, for which the Ki turned out to be 11 nM in series [1] and 3.9 nM in series [9]. The clearance in series [2] is 238 mL/min/kg. Also, the Kp in series [3] is 1.5. The bioavailability in series [13] turned out to be 18%. For the same molecule, the half-life in [7] was 0.4 h.
In the case of `CC(C)n1nc(-c2ccc(OCCCN3CCC[C@H]3C)cc2)ccc1=O`, the Ki came out at 7.6 nM in [1] and 4.8 nM in series [9]. This molecule also returned a clearance in series [2] of 258 mL/min/kg. The Kp in series [3] is 2.1. Besides, the bioavailability in series [13] was found to be 5%. In addition, the half-life in series [7] was 0.3 h.
For the molecule `Cn1nc(-c2ccc(OCCCN3CCC[C@H]3CO)cc2)ccc1=O`, the Ki in [1] is 48 nM. This molecule also displayed a clearance in [2] of 90 mL/min/kg. In series [3], the Kp was determined as 1.4. Besides, the bioavailability in series [13] is 43%. Further, the half-life in [7] is 1 h.
Consider `Cn1nc(-c2ccc(OCCCN3CCC[C@@H]3CO)cc2)ccc1=O`, for which the Ki in [1] turned out to be 427 nM.
With `Cn1nc(-c2ccc(OCCCN3CCCCC3)cc2)ccc1=O`, the figures for the Ki in series [1] and in series [9] were 106 nM and 21 nM, respectively. In [2], the clearance came out at 50 mL/min/kg. In addition, the Kp in series [3] was 5.3. The molecule also had a bioavailability in series [13] of 22%. Further, the half-life in series [7] was 1.2 h.
Consider `C[C@H]1CCCN1CCCOc1ccc(-c2ccc(=O)[nH]n2)cc1`, for which the Ki in [1] worked out at 50 nM; in [9], 16 nM. The molecule also had a clearance in series [2] of 14.5 mL/min/kg. In addition, the Kp in [3] worked out at 3.1. The bioavailability in series [13] turned out to be 25%. Moreover, the half-life in series [7] was 1.6 h.
`C[C@@H]1CCCN1CCc1cc2cc(-c3ccc(C#N)cc3)ccc2o1` gave a clearance in series [2] of 39 mL/min/kg. For the same molecule, in [3], the Kp was found to be 32. Moreover, in [14], the bioavailability is over 18%. Also, in [7], the half-life was 1.5 h.
With `C[C@@H]1CCCN1CCCOc1ccc(-n2ncccc2=O)cc1`, the Ki in [1] was determined as 347 nM; in series [9], 82 nM.
In the same order, the values of `O=c1ccc(-c2ccc(OCCCN3CCCC3)cc2)n[nH]1` are 45 nM and 16 nM.
On to `C[C@@H]1CCCN1CCCOc1ccc(-c2cn[nH]c(=O)c2)cc1`, for which the figures for the Ki in series [1] and in [9] were 8.5 nM and 2.8 nM, respectively. This molecule also displayed a clearance in series [2] of 9.6 mL/min/kg. Further, in series [3], the Kp was 1.8. Also, in series [4], the IC50 was 9500 nM. The EC50 in [5] is 1.1 nM; in series [11], 2.1 nM. In addition, in series [7], the half-life was 1 h. It took a dose of 0.03 mg/kg to reach the 50% effect level in series [8] (ED50). Further, the Kb in series [10] stood at 0.4 nM. In addition, the bioavailability in [12] was determined as 24%.
With `C[C@@H]1CCCN1CCCOc1ccc(-c2ccc(=O)[nH]n2)cc1`, the inhibition in series [15], in series [16] and in series [17] was under 11% in each case. Further, the Kb in [10] turned out to be 0.4 nM.
`O=c1ccc(-c2ccc(OCCCN3CCOCC3)cc2)n[nH]1`: the inhibition constant (Ki) in series [1] worked out at 822 nM; in series [9] it was 767 nM. Further, in [18], the pKa worked out at 7.1.
In the case of `C[C@@H]1CCCN1CCCOc1ccc(-c2ccc(=O)n(Cc3ccccc3)n2)cc1`, the Ki in [1] turned out to be 12 nM; in series [9], 6.9 nM. The molecule also showed a clearance in series [2] of 46 mL/min/kg. Besides, in [3], the Kp was determined as 3.8. The bioavailability in [13] was under 1%. In addition, the half-life in series [7] was 0.7 h.
Consider `C[C@@H]1CCCN1CCCOc1ccc(-c2ccc(=O)n(-c3ccccc3)n2)cc1`, for which the Ki in series [1] amounted to 7.9 nM; in series [9], 2.5 nM. The clearance in series [2] stood at 11.7 mL/min/kg. Moreover, the Kp in series [3] turned out to be 6.2. The bioavailability in series [13] turned out to be 10%. For the same molecule, in [7], the half-life is 2.1 h.
For the molecule `O=c1ccc(-c2ccc(OCCCN3CCCCC3)cc2)n[nH]1`, the figures for the Ki in series [1] and in [9] were 37 nM and 8.7 nM, respectively. This molecule also registered a clearance in series [2] of 4.9 mL/min/kg. In addition, in [3], the Kp came out at 1.9. The molecule also had a bioavailability in [13] of 11%. In addition, in series [7], the half-life is 0.9 h.
